# Values of other authors as cited in patent publication EP0970199B1, “FLUORESCENT PROTEIN SENSORS FOR DETECTION OF ANALYTES” (The Regents of the University of California, priority 1997, dated 1998).
# Details: fluorescein in 0.1 N NaOH; 9-aminoacridine in water
structure (smiles),measurement,value
Nc1c2ccccc2nc2ccccc12 [9-aminoacridine],quantum yield of standard,0.98
